According to US6683110B1, “Methyl esters of substituted 4-oxo-2-butenoic acid for treatment of tuberculosis” (University of Central Florida, priority 2001, dated 2004):

Legend:
in vivo = conditions: both sexes, mouse, ip, white mice, intraperitoneal injection of 2% solution in starch, 14 day observation
Method: Animal Toxicity Bioassay. Acute toxicity was studied on white mice of both sexes with weight ranging between 18-26 grams under intraperitoneal injection of 2% solution of tested compound in starch (the compound was dissolved in starch slime and injected) on the basis of 0.1 ml of solution per 10 g of the animal weight. Each dose was tested on the group of 6 animals that were observed during 14 day period. (This method was approved by the Pharmacology committee of Russian Ministry of Health and has been widely used since 1968.) Averaged lethal dose (LD50) of the compound was computed using results of experiments on 5-7 groups of animals using the method of Litchfield and Wilkinson. (Belenkii M. L. “Elements of quantative determination of the pharmacological effect,” Leningrad, 1963, 71 pages).
The acute toxicity of isoniazid is as following: LCLo (lowest published lethal concentration) for man is 100 mg/kg. […] All toxicity information about isoniazid can also be found on the web site: http://ntp-server.niehs.nih.gov/htdocs/Chem H&S/NTP Chem5/Radian54-85-3.html

[1] = tested on: M. tuberculosis (ATCC 25177); experiment: BACTEC 460 TB radiometric growth inhibition bioassay (bacteriostatic activity); type: cell-based, Mycobacterium tuberculosis; conditions: final concentration of 0.1 mg/ml in Bactec 7H12 B+ medium; percent inhibition from growth index
Stability in solution = type: physicochemical; conditions: decomposes quickly when the solution is heated or stored for a long time, with formation of OF-12
man = conditions: cited from earlier work

| SMILES | LD50 at 14 day (in vivo) [mg/kg] | percent activity against Mycobacterium tuberculosis [1] [%] | Stability in solutions (Stability in solution) | acute ingestion leading to mild toxicity (man; adults, acute ingestion) [g] | ingestion that may be fatal (man; adults, acute ingestion) [g] | ingestion usually fatal if not appropriately treated (man; adults, acute ingestion) [g] | LCLo (lowest published lethal concentration) (man; man) [mg/kg] |
| --- | --- | --- | --- | --- | --- | --- | --- |
| CCOc1ccc(C(=O)C=C(NN=C2c3ccccc3-c3ccccc32)C(=O)OC)cc1 [OF-12, 4-(4-Ethoxyphenyl)-2-(N′-fluoren-9-ylidenehydrazino)-4-oxobut-2-enoic acid methyl ester] | > 1500 | 81 |  |  |  |  |  |
| CCOc1ccc(C(=O)CC(O)(NN=C2c3ccccc3-c3ccccc32)C(=O)OC)cc1 (centres unmarked) [OF-13, 4-(4-Ethoxyphenyl)-2-(N′-fluoren-9-ylidenehydrazino)-2-hydroxy-4-oxobutyric acid methyl ester] | > 1500 | 88 | not stable in solutions |  |  |  |  |
| COC(=O)C(=CC(=O)C(C)(C)C)Nc1ccc(Br)cc1 [OF-15, 2-(4-Bromophenylamino)-5,5-dimethyl-4-oxohex-2-enoic acid methyl ester] | > 1500 | 98 |  |  |  |  |  |
| NNC(=O)c1ccncc1 [isoniazid, isonicotinic acid hydrazide] |  |  |  | ≥ 1.5 | 6 to 10 | 15 | 100 |
